# Measured values reported in US10188108B2, “Fused bicyclic heterocycle derivatives as pesticides” (BAYER CROPSCIENCE AKTIENGESELLSCHAFT, priority 2015, dated 2019).
# How the values were obtained:
# Musca domestica = Musca domestica test; assay type: in vivo; details: after 2 days, adult houseflies
# Method: • Solvent: dimethyl sulphoxide To produce a suitable preparation of active compound, 10 mg of active compound are mixed with 0.5 ml of dimethyl sulphoxide, and the concentrate is diluted with water to the desired concentration. Vessels containing a sponge treated with sugar solution and the active compound preparation of the desired concentration are populated with 10 adult houseflies (Musca domestica). After 2 days, the kill in % is determined. 100% means that all of the flies have been killed; 0% means that none of the flies have been killed.
# Ctenocephalides felis [1] = assay: Ctenocephalides felis - in vitro contact tests with adult cat fleas; assay type: in vivo; details: 5 μg/cm^2 (=500 g/ha), after 48 h, adult cat fleas dead or moribund
# Method: For the coating of the test tubes, 9 mg of active compound are first dissolved in 1 ml of acetone p.a. and then diluted to the desired concentration with acetone p.a. 250 μl of the solution are distributed homogeneously on the inner walls and the base of a 25 ml test tube by turning and rocking on an orbital shaker (rocking rotation at 30 rpm for 2 h). With 900 ppm active compound solution and internal surface 44.7 cm^2, given homogeneous distribution, an area-based dose of 5 μg/cm^2 is achieved.
# After the solvent has evaporated off, the tubes are populated with 5-10 adult cat fleas (Ctenocephalides felis), sealed with a perforated plastic lid and incubated in a horizontal position at room temperature and ambient humidity. After 48 h, efficacy is determined. To this end, the test tubes are stood upright and the fleas are knocked to the base of the tube. Fleas which remain motionless at the base or move in an uncoordinated manner are considered to be dead or moribund.
# 100% efficacy means that all the fleas were dead or moribund. 0% efficacy means that no fleas were harmed.
# Ctenocephalides felis [2] = assay: Ctenocephalides felis - oral test; assay type: in vivo; details: 100 ppm in citrated cattle blood, after 2 days, adult cat fleas
# Method: • Solvent: dimethyl sulphoxide To produce a suitable preparation of active compound, 10 mg of active compound are mixed with 0.5 ml of dimethyl sulphoxide. Dilution with citrated cattle blood gives the desired concentration. About 20 unfed adult cat fleas (Ctenocephalides felis) are placed into a chamber which is closed at the top and bottom with gauze. A metal cylinder whose bottom end is closed with parafilm is placed onto the chamber. The cylinder contains the blood/active compound preparation, which can be imbibed by the fleas through the parafilm membrane. After 2 days, the kill in % is determined. 100% means that all of the fleas have been killed; 0% means that none of the fleas have been killed.
# [3] = log P by HPLC on a reversed-phase column (C 18), EEC Directive 79/831 Annex V.A8; assay type: physicochemical; details: for LOGP_HCOOH: acidic range, pH 2.7, 0.1% aqueous formic acid/acetonitrile; for LOGP_HCOOH / LOGP_NEUTRAL: 55° C.; for LOGP_NEUTRAL: pH 7.8, 0.001 molar aqueous ammonium hydrogencarbonate/acetonitrile
# Method: The log P values are measured according to EEC Directive 79/831 Annex V.A8 by HPLC (high-performance liquid chromatography) on a reversed-phase column (C 18). Temperature: 55° C.
# The LC-MS determination in the acidic range is effected at pH 2.7 using 0.1% aqueous formic acid and acetonitrile (contains 0.1% formic acid) as eluents; linear gradient from 10% acetonitrile to 95% acetonitrile. Called log P (HCOOH) in the table.
# LC-MS determination in the neutral range is effected at pH 7.8 with 0.001 molar aqueous ammonium hydrogencarbonate solution and acetonitrile as eluents; linear gradient from 10% acetonitrile to 95% acetonitrile. Called log P (neutral) in the table.
# Calibration is carried out using unbranched alkan-2-ones (having 3 to 16 carbon atoms) with known log P values (log P values determined on the basis of the retention times by linear interpolation between two successive alkanones).
# Lucilia cuprina = Lucilia cuprina test; assay type: in vivo; details: 100 ppm, after 2 days, L1 larvae
# Method: • Solvent: dimethyl sulphoxide To produce a suitable preparation of active compound, 10 mg of active compound are mixed with 0.5 ml of dimethyl sulphoxide, and the concentrate is diluted with water to the desired concentration. About 20 L1 larvae of the Australian sheep blowfly (Lucilia cuprina) are transferred into a test vessel containing minced horsemeat and the active compound preparation of the desired concentration. After 2 days, the kill in % is determined. 100% means that all the larvae have been killed; 0% means that no larvae have been killed.
# Spodoptera frugiperda = Spodoptera frugiperda - spray test; assay type: in vivo; details: 500 g/ha, after 7 days, caterpillars on maize leaf discs
# Method: (§1) • Solvent: 78.0 parts by weight of acetone • 1.5 parts by weight of dimethylformamide • Emulsifier: alkylaryl polyglycol ether
# (§2) To produce a suitable preparation of active compound, 1 part by weight of active compound is dissolved using the stated parts by weight of solvent and made up with water containing an emulsifier concentration of 1000 ppm until the desired concentration is attained. To produce further test concentrations, the preparation is diluted with emulsifier-containing water.
# Leaf discs of maize (Zea mays) are sprayed with an active compound preparation of the desired concentration and, after drying, populated with caterpillars of the armyworm (Spodoptera frugiperda).
# After 7 days, the efficacy in % is determined. 100% means that all the caterpillars have been killed; 0% means that no caterpillars have been killed.
# Myzus persicae = Myzus persicae - spray test (Chinese cabbage leaf discs); assay type: in vivo; details: 500 g/ha, after 5-6 days
# Method: • Solvent: 78 parts by weight of acetone • 1.5 parts by weight of dimethylformamide • Emulsifier: alkylaryl polyglycol ether
# as §2
# Discs of Chinese cabbage leaves (Brassica pekinensis) infested by all stages of the green peach aphid (Myzus persicae) are sprayed with an active compound preparation of the desired concentration.
# After 5-6 days, the efficacy in % is determined. 100% means that all the aphids have been killed; 0% means that no aphids have been killed.
# Phaedon cochleariae = Phaedon cochleariae - spray test; assay type: in vivo; details: 500 g/ha, after 7 days, larvae on Chinese cabbage leaf discs
# Method: as §1, §2
# After 7 days, the efficacy in % is determined. 100% means that all the beetle larvae have been killed; 0% means that no beetle larvae have been killed.
# Boophilus microplus = Boophilus microplus - injection test; assay type: in vivo; details: 20 μg/animal injected, engorged adult female cattle ticks, laying of fertile eggs after 7 days
# Method: • Solvent: dimethyl sulphoxide
# To produce a suitable preparation of active compound, 10 mg of active compound are mixed with 0.5 ml of solvent and the concentrate is diluted with solvent to the desired concentration.
# 1 μl of the active compound solution is injected into the abdomen of 5 engorged adult female cattle ticks (Boophilus microplus). The animals are transferred into dishes and kept in a climate-controlled room.
# Efficacy is assessed after 7 days by laying of fertile eggs. Eggs which are not visibly fertile are stored in a climate-controlled cabinet until the larvae hatch after about 42 days. An efficacy of 100% means that none of the ticks has laid any fertile eggs; 0% means that all the eggs are fertile.
# Rhipicephalus sanguineus = Rhipicephalus sanguineus - in vitro contact tests with adult brown dog ticks; assay type: in vivo; details: 5 μg/cm^2 (=500 g/ha), after 48 h, adult dog ticks dead or moribund
# Method: For the coating of the test tubes, 9 mg of active compound are first dissolved in 1 ml of acetone p.a. and 20 then diluted to the desired concentration with acetone p.a. 250 μl of the solution are distributed homogeneously on the inner walls and the base of a 25 ml test tube by turning and rocking on an orbital shaker (rocking rotation at 30 rpm for 2 h). With 900 ppm active compound solution and internal surface 44.7 cm^2, given homogeneous distribution, an area-based dose of 5 μg/cm^2 is achieved.
# After the solvent has evaporated off, the tubes are populated with 5-10 adult dog ticks (Rhipicephalus sanguineus), sealed with a perforated plastic lid and incubated in a horizontal position in the dark at room temperature and ambient humidity. After 48 h, efficacy is determined. To this end, the ticks are knocked to the base of the tube and incubated on a hotplate at 45-50° C. for not more than 5 min. Ticks which remain motionless on the base or move in such an uncoordinated manner that they are unable to deliberately avoid the heat by climbing upwards are considered to be dead or moribund.
# An efficacy of 100% means that all the ticks were dead or moribund. 0% efficacy means that none of the ticks were harmed.
# Meloidogyne incognita = Meloidogyne incognita test; assay type: in vivo; details: 20 ppm, after 14 days, formation of galls on lettuce roots
# Method: • Solvent: 125.0 parts by weight of acetone To produce a suitable preparation of active compound, 1 part by weight of active compound is mixed with the stated amount of solvent and the concentrate is diluted with water to the desired concentration. Vessels are filled with sand, active compound solution, an egg/larvae suspension of the southern root-knot nematode (Meloidogyne incognita) and lettuce seeds. The lettuce seeds germinate and the plants develop. The galls develop on the roots. After 14 days, the nematicidal efficacy in % is determined by the formation of galls. 100% means that no galls were found; 0% means that the number of galls on the treated plants corresponds to the untreated control.
# Tetranychus urticae = Tetranychus urticae - spray test, OP-resistant; assay type: in vivo; details: 500 g/ha, after 6 days, bean leaf discs
# Method: as §1, §2
# Discs of bean leaves (Phaseolus vulgaris) infested with all stages of the greenhouse red spider mite (Tetranychus urticae) are sprayed with an active compound preparation of the desired concentration.
# After 6 days, the efficacy in % is determined. 100% means that all the spider mites have been killed; 0% means that no spider mites have been killed.
# Haemonchus contortus = Haemonchus contortus test; assay type: in vivo; details: 20 ppm, after 5 days, larvae
# Method: • Solvent: Dimethyl Sulphoxide To produce a suitable preparation of active compound, 10 mg of active compound are mixed with 0.5 ml of dimethyl sulphoxide and the concentrate is diluted with “Ringer's solution” to the desired concentration. Vessels containing the active compound preparation of the desired concentration are populated with about 40 larvae of the red stomach worm (Haemonchus contortus). After 5 days, the kill in % is determined. 100% means that all the larvae have been killed; 0% means that none of the larvae have been killed.
SMILES,LOGP_HCOOH [3],LOGP_NEUTRAL ([3]; neutral range),"chromatographic logP ([3]; reversed-phase HPLC column (C 18), neutral range, pH 7.8, value in preparation example text, read-out: log P (neutral))",efficacy (kill) (Musca domestica; 4 ppm) [%],efficacy (Ctenocephalides felis [1]) [%],efficacy (kill) (Ctenocephalides felis [2]) [%],efficacy (kill) (Lucilia cuprina) [%],efficacy (Spodoptera frugiperda) [%],efficacy (Myzus persicae) [%],efficacy (Phaedon cochleariae) [%],efficacy (kill) (Musca domestica; 20 ppm) [%],efficacy (Boophilus microplus) [%],efficacy (Rhipicephalus sanguineus) [%],nematicidal efficacy (Meloidogyne incognita) [%],efficacy (Tetranychus urticae) [%],efficacy (kill) (Haemonchus contortus) [%]
"CCS(=O)(=O)c1c(-c2nc3cc(C(F)(F)F)ncc3n2C)nc2ccccn12 [Example I-1, 2-(3-Ethylsulphonylimidazo[1,2-a]pyridin-2-yl)-3-methyl-6-(trifluoromethyl)imidazo[4,5-c]pyridine]",2.08,2.05,2.07,85,100,98,100,100,90,83,,,,,,
CCS(=O)(=O)c1c(-c2nc3cc(C(F)(F)F)ncc3n2C)nc2ccc(Cl)cn12 [Example I-4],2.67,2.61,,80,100,90,100,100,90,,,,,,,
CCS(=O)(=O)c1c(-c2nc3cc(C(F)(F)F)ncc3n2C)nc2ccc(C(F)(F)F)cn12 [Example I-6],3.09,3.06,,,100,100,100,100,90,100,90,,,,,
CCS(=O)(=O)c1c(-c2nc3cc(C(F)(F)F)ncc3n2C)nc2cc(C(F)(F)F)ccn12 [Example I-17],3.00,2.98,,80,100,100,100,100,100,100,,,,,,
CC[S+]([O-])c1c(-c2nc3cc(C(F)(F)F)ncc3n2C)nc2cc(C(F)(F)F)ccn12 (stereo not drawn) [Example I-18],3.29,3.25,,95,100,100,100,100,,100,,95,,,,

# Second part, led by results:
LOGP_HCOOH [3],LOGP_NEUTRAL ([3]; neutral range),"chromatographic logP ([3]; reversed-phase HPLC column (C 18), neutral range, pH 7.8, value in preparation example text, read-out: log P (neutral))",SMILES,efficacy (kill) (Musca domestica; 4 ppm) [%],efficacy (Ctenocephalides felis [1]) [%],efficacy (kill) (Ctenocephalides felis [2]) [%],efficacy (kill) (Lucilia cuprina) [%],efficacy (Spodoptera frugiperda) [%],efficacy (Myzus persicae) [%],efficacy (Phaedon cochleariae) [%],efficacy (kill) (Musca domestica; 20 ppm) [%],efficacy (Boophilus microplus) [%],efficacy (Rhipicephalus sanguineus) [%],nematicidal efficacy (Meloidogyne incognita) [%],efficacy (Tetranychus urticae) [%],efficacy (kill) (Haemonchus contortus) [%]
2.98,,,CCS(=O)(=O)c1c(-c2nc3cc(C(F)(F)F)ccc3n2C)nc2ccc(C)cn12 [Example I-35],,100,,,100,90,,,,80,,,
3.43,3.39,,CCSc1c(-c2nc3cc(C(F)(F)F)cnc3n2C)nc2ccccn12 [Example I-52],,,,,,,100,,,,100,,
2.58,2.49,,CCS(=O)(=O)c1c(-c2nc3cc(C(F)(F)F)cnc3n2C)nc2ccccn12 [Example I-59],,100,80,100,100,90,100,80,,100,,90,80
